Experimental data published in US20210198277A1, “AMINE-SUBSTITUTED ARYL OR HETEROARYL COMPOUNDS” (Epizyme, Inc., priority 2016, published 2021).
Read-outs that look alike come from different tables or passages of the source.

Tests used:
EHMT1 = target: T1, EHMT1 (Homo sapiens, UniProt Q9H9B1); assay: EHMT1 enzyme assay on peptide substrate (EHMT1 PEP); format: biochemical; conditions: Table II
T1 sequence (Q9H9B1 1-1298): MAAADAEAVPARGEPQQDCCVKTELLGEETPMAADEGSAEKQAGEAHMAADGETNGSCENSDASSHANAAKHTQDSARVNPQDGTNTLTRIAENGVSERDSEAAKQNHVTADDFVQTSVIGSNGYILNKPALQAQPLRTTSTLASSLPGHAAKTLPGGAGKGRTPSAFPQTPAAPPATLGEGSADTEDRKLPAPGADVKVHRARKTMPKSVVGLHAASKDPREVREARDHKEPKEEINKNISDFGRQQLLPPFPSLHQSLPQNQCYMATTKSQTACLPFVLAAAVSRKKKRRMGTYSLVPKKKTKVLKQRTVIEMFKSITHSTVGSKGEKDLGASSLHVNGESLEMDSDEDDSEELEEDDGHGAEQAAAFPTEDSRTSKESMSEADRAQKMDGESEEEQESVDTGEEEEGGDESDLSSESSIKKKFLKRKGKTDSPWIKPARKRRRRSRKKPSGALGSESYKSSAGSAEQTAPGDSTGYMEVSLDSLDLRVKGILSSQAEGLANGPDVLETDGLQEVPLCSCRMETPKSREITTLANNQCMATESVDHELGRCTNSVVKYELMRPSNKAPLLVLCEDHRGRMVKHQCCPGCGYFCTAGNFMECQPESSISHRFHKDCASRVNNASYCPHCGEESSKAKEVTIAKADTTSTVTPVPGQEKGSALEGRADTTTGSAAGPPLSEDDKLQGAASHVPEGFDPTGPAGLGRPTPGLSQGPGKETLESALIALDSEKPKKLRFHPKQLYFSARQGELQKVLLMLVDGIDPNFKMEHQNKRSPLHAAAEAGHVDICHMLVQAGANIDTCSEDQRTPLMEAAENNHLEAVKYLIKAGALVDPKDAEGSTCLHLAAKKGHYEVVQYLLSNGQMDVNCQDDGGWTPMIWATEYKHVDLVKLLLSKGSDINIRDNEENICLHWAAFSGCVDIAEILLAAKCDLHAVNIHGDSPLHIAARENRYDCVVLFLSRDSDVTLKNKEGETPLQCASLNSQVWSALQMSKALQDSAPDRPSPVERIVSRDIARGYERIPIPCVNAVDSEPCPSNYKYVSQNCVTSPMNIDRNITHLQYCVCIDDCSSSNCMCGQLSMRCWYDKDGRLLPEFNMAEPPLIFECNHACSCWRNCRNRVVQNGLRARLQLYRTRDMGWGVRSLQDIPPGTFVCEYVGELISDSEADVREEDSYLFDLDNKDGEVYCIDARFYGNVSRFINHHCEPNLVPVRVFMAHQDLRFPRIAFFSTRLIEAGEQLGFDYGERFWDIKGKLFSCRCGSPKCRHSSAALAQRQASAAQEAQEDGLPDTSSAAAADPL

human EHMT2 913-1193 = target: T2, human EHMT2 913-1193 (Homo sapiens, UniProt Q96KQ7); assay: EHMT2 enzyme assay on histone peptide substrate (EHMT2 PEP); format: biochemical; conditions: Table II; read-out: EHMT2 PEP (IC50 μM)
T2 construct: recombinant purified human EHMT2 913-1193, Viva; purchased Viva
T2 sequence (Q96KQ7 913-1193): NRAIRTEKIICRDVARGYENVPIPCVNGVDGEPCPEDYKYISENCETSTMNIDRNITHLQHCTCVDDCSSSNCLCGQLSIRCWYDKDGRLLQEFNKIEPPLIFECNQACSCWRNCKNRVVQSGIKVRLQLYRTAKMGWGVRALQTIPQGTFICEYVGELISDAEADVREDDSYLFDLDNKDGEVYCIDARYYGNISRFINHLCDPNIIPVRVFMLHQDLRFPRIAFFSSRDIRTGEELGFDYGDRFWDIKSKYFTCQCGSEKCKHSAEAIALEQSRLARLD
In short: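 Inhibition is measured as reduced tritium incorporation into a biotinylated histone peptide from ^3H-SAM. The enzyme (0.031 nM) sees compound for 30 minutes before a 60-minute room-temperature reaction, which unlabeled SAM quenches prior to streptavidin Flashplate capture.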

SMILES	IC50 (EHMT1; read-out: EHMT1 PEP (IC50 μM))	IC50 (human EHMT2 913-1193)	IC50 (EHMT1; EHMT1 PEP (IC50 μM))
COc1ccc(Nc2nccc(NCC3CCNCC3)n2)cc1OCCCN1CCOCC1 [Compound 16, N^2-(4-methoxy-3-(3-morpholinopropoxy)phenyl)-N^4-(piperidin-4-ylmethyl)pyrimidine-2,4-diamine]	0.1 to 1 µM	0.1 to 1 µM	
COc1ccc(Nc2nccc(NCC3CCNCC3)n2)cc1CCNCC1CCCC1 [Compound 17, N^2-(3-(2-((cyclopentylmethyl)amino)ethyl)-4-methoxyphenyl)-N^4-(piperidin-4-ylmethyl)pyrimidine-2,4-diamine]	0.1 to 1 µM	0.1 to 1 µM	
COc1ccc(Nc2nccc(NCC3CCN(C(C)=O)CC3)n2)cc1OCC1CCN(C)C1 (stereo not shown) [Compound 18, 1-(4-(((2-((4-methoxy-3-((1-methylpyrrolidin-3-yl)methoxy)phenyl)amino)pyrimidin-4-yl)amino)methyl)piperidin-1-yl)ethan-1-one]	0.1 to 1 µM	0.1 to 1 µM	
COc1ccc(Nc2nc(C)cc(NCC3CCN(C(C)=O)CC3)n2)cc1OCCCN1CCCC1 [Compound 19, 1-(4-(((2-((4-methoxy-3-(3-(pyrrolidin-1-yl)propoxy)phenyl)amino)-6-methylpyrimidin-4-yl)amino)methyl)piperidin-1-yl)ethan-1-one]	< 0.1 µM	< 0.1 µM	
COc1ccc(Nc2nccc(NCc3nc4ccccc4[nH]3)n2)cc1OCCCN1CCCC1 [Compound 31]	0.1 to 1 µM	0.1 to 1 µM	
COc1ccc(Nc2nccc(NCC3CCN(c4ccccc4)CC3)n2)cc1OCCCN1CCCC1 [Compound 33]	0.1 to 1 µM	< 0.1 µM	
COc1ccc(Nc2cccc(NC3CCC3)n2)cc1OCCCN1CCCC1 [Compound 35]	0.1 to 1 µM	0.1 to 1 µM	
COc1ccc(Nc2nccc(NCC3CCN(C(C)=O)CC3)n2)cc1COCCN1CCCC1 [Compound 48]	0.1 to 1 µM	0.1 to 1 µM	
COc1ccc(Nc2nccc(NC3CCCCC3)n2)cc1OCCCN1CCCC1 [Compound 50]	0.1 to 1 µM	0.1 to 1 µM	
CNc1cc(C)nc(Nc2ccc(OC)c(OCCCN3CCCC3)c2)n1 [Compound 205, N^2-(4-methoxy-3-(3-(pyrrolidin-1-yl)propoxy)phenyl)-N^4,6-dimethylpyrimidine-2,4-diamine]		< 0.1 µM	< 0.1 µM
CNc1cc(Nc2ccc(OC)c(OCCCN3CCCC3)c2)ccn1 [Compound 206]	0.1 to 1 µM	0.1 to 1 µM	
CNc1ccnc(Nc2cccc(OCCCN3CCCC3)c2)n1 [Compound 207, N^4-methyl-N^2-(3-(3-(pyrrolidin-1-yl)propoxy)phenyl)pyrimidine-2,4-diamine]	1 to 10 µM	1 to 10 µM	
CNc1nc(C)cc(Nc2ccc(OC)c(OCCCN3CCCC3)c2)n1 [Compound 208]	0.1 to 1 µM	0.1 to 1 µM	
CNc1ccnc(Nc2ccc(OC)c(OCCCN3CCCC3)c2)c1 [Compound 209, N^2-(4-methoxy-3-(3-(pyrrolidin-1-yl)propoxy)phenyl)-N^4-methylpyridine-2,4-diamine]	0.1 to 1 µM	0.1 to 1 µM	
CNc1ccnc(Nc2ccc(OC)c(OCCCN3CCOCC3)c2)n1 [Compound 210]	1 to 10 µM	1 to 10 µM	
COc1ccc(Nc2nccc(-n3nc(C)cc3C)n2)cc1OCCCN1CCCC1 [Compound 214]	> 10 µM	> 10 µM	
CNCc1cnc(Nc2ccc(OC)c(OCCCN3CCCC3)c2)nc1 [Compound 215]	> 10 µM	> 10 µM	
COc1ccc(Nc2ccnc(NCC3CCN(C(C)=O)CC3)n2)cc1OCCCN1CCCC1 [Compound 216]	0.1 to 1 µM	0.1 to 1 µM	

Second part, the compound after the results:

IC50 (EHMT1; read-out: EHMT1 PEP (IC50 μM))	IC50 (human EHMT2 913-1193)	IC50 (EHMT1; EHMT1 PEP (IC50 μM))	SMILES
0.1 to 1 µM	< 0.1 µM		COc1ccc(Nc2nccc(NC(C)C)n2)cc1OCCCN1CCCC1 [Compound 20]
0.1 to 1 µM	< 0.1 µM		COc1ccc(Nc2nccc(NCc3ccccc3)n2)cc1OCCCN1CCCC1 [Compound 21]
< 0.1 µM	< 0.1 µM		COCCCNc1ccnc(Nc2ccc(OC)c(OCCCN3CCCC3)c2)n1 [Compound 22]
0.1 to 1 µM	0.1 to 1 µM		COc1ccc(Nc2nccc(NCc3ccccn3)n2)cc1OCCCN1CCCC1 [Compound 23]
< 0.1 µM	< 0.1 µM		COc1ccc(Nc2nccc(NCc3ccncc3)n2)cc1OCCCN1CCCC1 [Compound 24]
< 0.1 µM	< 0.1 µM		COc1ccc(Nc2nccc(NCc3cccnc3)n2)cc1OCCCN1CCCC1 [Compound 25]
0.1 to 1 µM	< 0.1 µM		COc1cccc(CNc2ccnc(Nc3ccc(OC)c(OCCCN4CCCC4)c3)n2)c1 [Compound 26]
0.1 to 1 µM	0.1 to 1 µM		COCCNc1ccnc(Nc2ccc(OC)c(OCCCN3CCCC3)c2)n1 [Compound 27]
< 0.1 µM	< 0.1 µM		COc1ccc(CNc2ccnc(Nc3ccc(OC)c(OCCCN4CCCC4)c3)n2)cc1 [Compound 28]
< 0.1 µM	< 0.1 µM		COc1ccc(Nc2nccc(NCC3CCN(C(C)C)CC3)n2)cc1OCCCN1CCCC1 [Compound 29]
0.1 to 1 µM	< 0.1 µM		COc1ccc(Nc2nccc(NCc3cnn(C)c3)n2)cc1OCCCN1CCCC1 [Compound 30]
< 0.1 µM	< 0.1 µM		COc1ccc(Nc2nccc(NCC3CCN(C)CC3)n2)cc1OCCCN1CCCC1 [Compound 32]
0.1 to 1 µM	< 0.1 µM		COc1ccc(Nc2nccc(NCC3CCCC3)n2)cc1OCCCN1CCCC1 [Compound 34]
0.1 to 1 µM	< 0.1 µM		COc1ccccc1CNc1ccnc(Nc2ccc(OC)c(OCCCN3CCCC3)c2)n1 [Compound 36]
0.1 to 1 µM	0.1 to 1 µM		COc1ccc(Nc2nccc(NCCc3cccnc3)n2)cc1OCCCN1CCCC1 [Compound 37]
0.1 to 1 µM	< 0.1 µM		COc1ccc(Nc2nccc(NCCNC(C)=O)n2)cc1OCCCN1CCCC1 [Compound 38]
< 0.1 µM	< 0.1 µM		COc1ccc(Nc2nccc(NCCc3ccncc3)n2)cc1OCCCN1CCCC1 [Compound 39]
0.1 to 1 µM	0.1 to 1 µM		COc1ccc(Nc2nccc(NCCOc3ccccc3)n2)cc1OCCCN1CCCC1 [Compound 40]
0.1 to 1 µM	0.1 to 1 µM		CNC(=O)CNc1ccnc(Nc2ccc(OC)c(OCCCN3CCCC3)c2)n1 [Compound 41]
0.1 to 1 µM	0.1 to 1 µM		COc1ccc(Nc2nccc(NCC(C)(C)O)n2)cc1OCCCN1CCCC1 [Compound 42]
0.1 to 1 µM	0.1 to 1 µM		COc1ccc(Nc2nccc(NCCS(=O)(=O)N(C)C)n2)cc1OCCCN1CCCC1 [Compound 43]
0.1 to 1 µM	0.1 to 1 µM		COc1ccc(Nc2nccc(NCCCN(C)C(C)=O)n2)cc1OCCCN1CCCC1 [Compound 44]
0.1 to 1 µM	0.1 to 1 µM		COc1ccc(Nc2nccc(NCC3(O)CCCCC3)n2)cc1OCCCN1CCCC1 [Compound 45]
0.1 to 1 µM	< 0.1 µM		COc1ccc(Nc2nccc(NCc3cc[nH]n3)n2)cc1OCCCN1CCCC1 [Compound 46]
< 0.1 µM	< 0.1 µM		COc1ccc(Nc2nccc(NCC3CCN(C(C)=O)CC3)n2)cc1OCCCN1CCCC1 [Compound 47, 1-(4-(((2-((4-methoxy-3-(3-(pyrrolidin-1-yl)propoxy)phenyl)amino)pyrimidin-4-yl)amino)methyl)piperidin-1-yl)ethan-1-one]
0.1 to 1 µM	0.1 to 1 µM		COc1ccc(Nc2nccc(NCC3(O)CCOCC3)n2)cc1OCCCN1CCCC1 [Compound 49]
